Measurements published in the NIST ThermoML archive (doi:10.1016/j.tca.2014.07.022).

Assay: xn = mol fraction of the nth substance listed
Conditions: 100 kPa, Liquid; for viscosity: Concentric cylinders viscometry; for mass density: Vibrating tube method

CC(=O)CC(C)C [4-methylpentan-2-one] + CCC(C)O
Conditions	mass density [kg/m3]	viscosity [mPa·s]
293.15 K, x1 = 0.1002	805.1	2.361
293.15 K, x1 = 0.1905	803.8	1.802
293.15 K, x1 = 0.2801	802.8	1.468
293.15 K, x1 = 0.4054	801.7	1.162
293.15 K, x1 = 0.4891	801.2	1.001
293.15 K, x1 = 0.6123	800.7	0.84
293.15 K, x1 = 0.6942	800.5	0.771
293.15 K, x1 = 0.779	800.5	0.713
293.15 K, x1 = 0.8747	800.5	0.646
293.15 K, x1 = 0.9522	800.7	0.614
293.15 K, x1 = 1	800.8	0.588
298.15 K, x1 = 0.1002	800.9	2.041
298.15 K, x1 = 0.1905	799.5	1.598
298.15 K, x1 = 0.2801	798.4	1.311
298.15 K, x1 = 0.4054	797.2	1.053
298.15 K, x1 = 0.4891	796.6	0.916
298.15 K, x1 = 0.6123	796	0.776
298.15 K, x1 = 0.6942	795.9	0.717
298.15 K, x1 = 0.779	795.8	0.666
298.15 K, x1 = 0.8747	795.8	0.607
298.15 K, x1 = 0.9522	796	0.582
298.15 K, x1 = 1	796.1	0.554
303.15 K, x1 = 0.1002	796.4	1.762
303.15 K, x1 = 0.1905	795	1.403
303.15 K, x1 = 0.2801	793.9	1.173
303.15 K, x1 = 0.4054	792.6	0.955
303.15 K, x1 = 0.4891	792.1	0.84
303.15 K, x1 = 0.6123	791.5	0.716
303.15 K, x1 = 0.6942	791.3	0.668
303.15 K, x1 = 0.779	791.2	0.621
303.15 K, x1 = 0.8747	791.3	0.569
303.15 K, x1 = 0.9522	791.4	0.545
303.15 K, x1 = 1	791.6	0.523
308.15 K, x1 = 0.1002	792	1.531
308.15 K, x1 = 0.1905	790.5	1.247
308.15 K, x1 = 0.2801	789.3	1.055
308.15 K, x1 = 0.4054	788	0.87
308.15 K, x1 = 0.4891	787.4	0.775
308.15 K, x1 = 0.6123	786.7	0.664
308.15 K, x1 = 0.6942	786.5	0.623
308.15 K, x1 = 0.779	786.5	0.582
308.15 K, x1 = 0.8747	786.5	0.536
308.15 K, x1 = 0.9522	786.7	0.513
308.15 K, x1 = 1	786.9	0.493
313.15 K, x1 = 0.1002	787.6	1.341
313.15 K, x1 = 0.1905	786	1.1
313.15 K, x1 = 0.2801	784.7	0.94
313.15 K, x1 = 0.4054	783.4	0.787
313.15 K, x1 = 0.4891	782.7	0.708
313.15 K, x1 = 0.6123	782.1	0.621
313.15 K, x1 = 0.6942	781.9	0.58
313.15 K, x1 = 0.779	781.8	0.544
313.15 K, x1 = 0.8747	781.9	0.505
313.15 K, x1 = 0.9522	782.1	0.485
313.15 K, x1 = 1	782.3	0.463
318.15 K, x1 = 0.1002	783	1.181
318.15 K, x1 = 0.1905	781.3	0.984
318.15 K, x1 = 0.2801	780	0.847
318.15 K, x1 = 0.4054	778.6	0.715
318.15 K, x1 = 0.4891	777.9	0.649
318.15 K, x1 = 0.6123	777.3	0.575
318.15 K, x1 = 0.6942	777.1	0.535
318.15 K, x1 = 0.779	777	0.505
318.15 K, x1 = 0.8747	777.1	0.477
318.15 K, x1 = 0.9522	777.4	0.458
318.15 K, x1 = 1	777.6	0.437
323.15 K, x1 = 0.1002	778.3	1.035
323.15 K, x1 = 0.1905	776.6	0.88
323.15 K, x1 = 0.2801	775.3	0.772
323.15 K, x1 = 0.4054	773.8	0.662
323.15 K, x1 = 0.4891	773.2	0.603
323.15 K, x1 = 0.6123	772.6	0.535
323.15 K, x1 = 0.6942	772.4	0.501
323.15 K, x1 = 0.779	772.3	0.471
323.15 K, x1 = 0.8747	772.5	0.449
323.15 K, x1 = 0.9522	772.7	0.434
323.15 K, x1 = 1	773	0.41
